The test system of one assay is HIV. The assay is described as follows: microbe, parasite or virus in culture. Format: cell-based. The note with it: XTT, 450 nm, * (n) = average of n assays, read-out: Antiviral Activity IC90. As for the experimental part:
In addition, the compounds described in the present application may be tested using an antiviral cell culture assay as described in Weislow, O.S., J. of National Cancer Institute, 81(8), pages 577-586 (Apr. 19, 1989) herein incorporated by reference.
This assay compares the viability of HIV-infected cells in a cell culture medium relative to the viability of such cells in the presence of a test compound. The concentration of test compound necessary to inhibit 90% of the virus is then measured using the viability of the cells as an indicator of viral inhibition. This assay is carried out using cell lines that are sensitive to the lyric effects of HIV infection.
Specifically, this assay utilizes the metabolic reduction of a tetrazolium reagent, 2,3-bis[2-methoxy-4-nitro-5-sulfophenyl]-5-[(phenylamino)carbonyl]-2H-tetrazolium hydroxide (XTT). In the presence of a viable cell, the tetrazolium reagent, XTT, is reduced to provide XTT formazan which may be quantified using colorimetric determination (at 450 nm). The intensity of the chromogenic signal is directly proportional to the concentration of the XTT formazan, thus providing a measure of the quantity of viable cells.
(In general: Tetrazolium assays rely on reduction of a dye to a coloured formazan, in cell work by metabolically active cells.)

Another assay deals with T1, HIV-1 Protease (Human immunodeficiency virus type 1 group M subtype B, UniProt P04585).
T1 construct: HIV-1 Protease
Put plainly: biochemical. The note with it: for IC50: read-out: Fluorescence Assay IC50 (converted). The method, then:
These compounds may be assayed using two assays: (1) an enzyme inhibition assay, and (2) an antiviral cell culture assay.
This assay is described in detail in published European Patent Application (EPA) 0 526 009, herein incorporated by reference. Using this assay, a number of the compounds, prepared above, were assayed for HIV protease inhibitory activity.
The assay is unable to test compounds at less than a concentration of 0.16 ng/mL.

Setting [1] is: Human immunodeficiency virus 1, concentration inhibiting 90% of the viral-induced toxicity.
Where [2] appears, read: concentration inhibiting 50% of the enzyme, * = calculated average with n number of assays.
Where [3] appears, read: concentration inhibiting 90% of the viral-induced toxicity.

Where two headings read alike, the source gives them in different places.

Regarding `CC(C)(C)NC(=O)[C@@H]1C[C@@H]2SCC[C@@H]2CN1C[C@@H](O)[C@H](CSc1ccccc1)NC(=O)[C@@H](CS(=O)(=O)c1ccc(F)cc1)NC(=O)C(F)(F)F` [Example 29, N-t-Butyl-octahydro-5[2R-hydroxy-3R-phenylthiomethyl-4-aza-5-oxo-6S-N(trifluoromethylcarbonyl)amino-7-p-fluorophenylsulfonyl-heptyl]-(3aR,7aS)-thieno[3,2-c]pyridine-(6S)-carboxamide], the IC90 (commonly the point of the concentration-response curve where the effect stands at 90%) in the assay on HIV (setting [1]) amounted to 754 nM. Besides, the IC50 (commonly the point on the concentration scale where inhibition reaches its midpoint) on HIV-1 Protease is 11.1 nM. Regarding `CC(C)(C)NC(=O)[C@@H]1C[C@@H]2SCC[C@@H]2CN1C[C@@H](O)[C@H](CSc1ccccc1)NC(=O)[C@H](CC(N)=O)NC(=O)c1ccc2ccccc2n1` [Example 14C], in the assay with HIV (setting [1]), the IC90 was determined as 28 nM. Take `CC(C)(C)NC(=O)[C@@H]1C[C@@H]2SCC[C@@H]2CN1C[C@@H](O)[C@H](Cc1ccccc1)NC(=O)[C@@H](CS(=O)(=O)c1ccc(F)cc1)NS(C)(=O)=O` [Example 19B, N-t-Butyl-octahydro-5[2R-hydroxy-3S-phenylmethyl-4-aza-5-oxo-6S-N(methylsulfonyl)amino-7-p-fluorophenylsulfonyl-heptyl]-(3aR,7aS)-thieno[3,2-c]pyridine-(6S)-carboxamide]: the IC90 in the assay on HIV (setting [1]) was 233 nM. In addition, the IC50 at HIV-1 Protease (setting [2]) is 0.224 nM. Consider `CC(C)[C@@H]1[C@H](OC(=O)N[C@@H](CSc2ccccc2)[C@H](O)CN2C[C@H]3CCS[C@H]3C[C@H]2C(=O)NC(C)(C)C)CCS1(=O)=O` [10B-52 mg sample], for which the IC90 in the assay with HIV (setting [1]) is 9 nM. The half-maximal inhibitory concentration (IC50) at HIV-1 Protease is 0.421 nM. `C[C@H]1[C@@H](OC(=O)N[C@@H](CSc2ccccc2)[C@H](O)CN2C[C@H]3CCS[C@H]3C[C@H]2C(=O)NC(C)(C)C)CCS1(=O)=O` [Example 37D, N-t-Butyl-octahydro-5[2R-hydroxy-3R-N(1',1'-dioxo-2'S-methyl-tetrahydrothiophen-3'S-yloxycarbonyl)amino-4-phenylthio)-butyl]-(3aR,7aS)-thieno[3,2-c] pyridine-(6S)-carboxamide methanesulfonate]: the IC90 in the assay with HIV (setting [3]) amounted to 1.8 nM. In addition, the IC50 on HIV-1 Protease is 0.358 nM. For `CC(C)(C)NC(=O)[C@@H]1C[C@@H]2SCC[C@@H]2CN1C[C@@H](O)[C@H](Cc1ccccc1)NC(=O)[C@@H](CS(=O)(=O)c1cccc2cccnc12)NC(=O)C(F)(F)F` [Example 24B, N-t-Butyl-octahydro-5[2R-hydroxy-3S-phenylmethyl-4-aza-5-oxo-6S-N(trifluoromethylcarbonyl)amino-7-quinolin-8-ylsulfonyl-heptyl]-(3aR,7aS)-thieno[3,2-c]pyridine-(6S)-carboxamide], the IC90 with HIV (setting [1]) was 81.8 nM. For the molecule `CC(C)[C@@H]1SCC[C@@H]1OC(=O)N[C@@H](CSc1ccccc1)[C@H](O)CN1C[C@H]2CCS[C@H]2C[C@H]1C(=O)NC(C)(C)C` [9B-23 mg sample], the IC90 in the assay on HIV (setting [1]) was 604 nM. Moreover, the concentration for half-maximal inhibition (IC50) at HIV-1 Protease (setting [2]) was 2.62 nM.

Take `CC(C)[C@@H]1[C@H](OC(=O)N[C@@H](CSc2ccccc2)[C@H](O)CN2C[C@H]3CCS[C@H]3C[C@H]2C(=O)NC(C)(C)C)CCS1(=O)=O` [Example 40D, N-t-Butyl-octahydro-5[2R-hydroxy-3R-N(1',1'-dioxo-2'R-isopropyl-tetrahydrothiophen-3'R-yloxycarbonyl)amino-4-phenylthio-)-butyl]-(3aR,7aS)-thieno[3,2-c] pyridine-(6S)-carboxamide methanesulfonate]: the IC90 in the assay on HIV (setting [1]) came to 7.1 nM. On to `CC(C)(C)NC(=O)[C@@H]1C[C@@H]2SCC[C@@H]2CN1C[C@@H](O)[C@H](CSc1ccccc1)NC(=O)[C@@H](CS(=O)(=O)c1ccc2ccccc2c1)NC(=O)C(F)(F)F` [Example 30B, N-t-Butyl-octahydro-5[2R-hydroxy-3R-phenylthiomethyl-4-aza-5-oxo-6S-N(trifluoromethylcarbonyl)amino-7-naphth-2-ylsulfonyl-heptyl]-(3aR,7aS)-thieno[3,2-c]pyridine-(6S)-carboxamide], for which, in the assay on HIV (setting [1]), the IC90 was 203 nM. Moreover, at HIV-1 Protease, the IC50 was 1.96 nM. Turning to `C[C@@H]1[C@H](OC(=O)N[C@@H](CSc2ccccc2)[C@H](O)CN2C[C@H]3CCS[C@H]3C[C@H]2C(=O)NC(C)(C)C)CCS1(=O)=O` [Example 38D, N-t-Butyl-octahydro-5[2R-hydroxy-3R-N(1',1'-dioxo-2'R-methyl-tetrahydrothiophen-3'R-yloxycarbonyl)amino-4-phenylthio)-butyl]-(3aR,7aS)-thieno[3,2c] pyridine-(6S)-carboxamide methanesulfonate], in the assay on HIV (setting [3]), the IC90 stood at 7.1 nM. At HIV-1 Protease, the IC50 is 7.28 nM. In the case of `CC(C)(C)NC(=O)[C@@H]1C[C@@H]2SCC[C@@H]2CN1C[C@@H](O)[C@H](CSc1ccccc1)NC(=O)O[C@H]1CCS(=O)(=O)C1` [11C-6 mg sample], the IC90 with HIV (setting [1]) was found to be 29 nM. Further, the half-maximal inhibitory concentration (IC50) at HIV-1 Protease (setting [2]) was 2 nM. For `CC(=O)N[C@H](CS(=O)(=O)c1ccc2ccccc2c1)C(=O)N[C@@H](Cc1ccccc1)[C@H](O)CN1C[C@H]2CCS[C@H]2C[C@H]1C(=O)NC(C)(C)C` [Example 28], the IC90 with HIV (setting [1]) is 21.8 nM. Besides, the half-inhibitory concentration (IC50) at HIV-1 Protease was 2.67 nM. In the case of `C[C@@H]1[C@H](OC(=O)N[C@@H](CSc2ccccc2)[C@H](O)CN2C[C@H]3CCS[C@H]3C[C@H]2C(=O)NC(C)(C)C)CCS1(=O)=O` [31D-Fraction A], the IC90 in the assay on HIV (setting [3]) is 30.3 nM. Regarding `C[C@H]1[C@H](OC(=O)N[C@@H](CSc2ccccc2)[C@H](O)CN2C[C@H]3CCS[C@H]3C[C@H]2C(=O)NC(C)(C)C)CCS1(=O)=O` [34-Fraction B], the 90% effect concentration (IC90) in the assay with HIV (setting [1]) came out at 32.1 nM. In addition, the IC50 on HIV-1 Protease is 27.4 nM.

With `CC(=O)N[C@H](CCS(C)(=O)=O)C(=O)N[C@@H](CSc1ccccc1)[C@H](O)CN1C[C@H]2CCS[C@H]2C[C@H]1C(=O)NC(C)(C)C` [Example 15B, N-t-Butyl-octahydro-5[2R-hydroxy-3R-phenylthiomethyl-4-aza-5-oxo-6R-N(acetyl)amino-8-methylsulfonyl-octyl]-(3aR,7aS)-thieno[3,2-c]pyridine-(6S)-carboxamide], in the assay with HIV (setting [1]), the IC90 amounted to 7630 nM. Also, the IC50 at HIV-1 Protease (setting [2]) was 13.5 nM. As to `C[C@@H]1[C@@H](OC(=O)N[C@@H](CSc2ccccc2)[C@H](O)CN2C[C@H]3CCS[C@H]3C[C@H]2C(=O)NC(C)(C)C)CCS1(=O)=O` [34-Fraction A], the IC90 in the assay on HIV (setting [1]) was found to be 45.2 nM. Besides, the concentration for half-maximal inhibition (IC50) on HIV-1 Protease is 7.28 nM. The like results for `CC(C)[C@H]1[C@@H](OC(=O)N[C@@H](CSc2ccccc2)[C@H](O)CN2C[C@H]3CCS[C@H]3C[C@H]2C(=O)NC(C)(C)C)CCS1(=O)=O` [10B-51 mg sample] were, in that order, 77 nM and 0.95 nM. `CC(C)(C)NC(=O)[C@@H]1C[C@@H]2SCC[C@@H]2CN1C[C@@H](O)[C@H](Cc1ccccc1)NC(=O)[C@@H](CS(=O)(=O)c1ccc2ccccc2c1)NS(C)(=O)=O` [Example 17B, N-t-Butyl-octahydro-5[2R-hydroxy-3S-phenylmethyl-4-aza-5-oxo-6S-N(methylsulfonyl)amino-7-naphth-2-ylsulfonyl-heptyl]-(3aR,7aS)-thieno[3,2-c]pyridine-(6S)-carboxamide]: in the assay on HIV (setting [1]), the 90% effect concentration (IC90) amounted to 78 nM. The inhibition at 0.00016 µg/mL at HIV-1 Protease (at 0.16 ng/mL, lowest testable concentration, read-out: % inhibition at the stated concentration (ICx (0.16))) came out at 60%.

As for `CC(C)(C)NC(=O)[C@@H]1C[C@@H]2SCC[C@@H]2CN1C[C@@H](O)[C@H](Cc1ccccc1)NC(=O)[C@@H](CS(=O)(=O)c1cccc2cccnc12)NS(C)(=O)=O` [Example 26, N-t-Butyl-octahydro-5[2R-hydroxy-3S-phenylmethyl-4-aza-5-oxo-6S-N(methylsulfonyl)amino-7-quinolin-8-ylsulfonyl-heptyl]-(3aR,7aS)-thieno[3,2-c]pyridine-(6S)-carboxamide], the IC90 in the assay with HIV (setting [1]) was 225 nM. For the same molecule, the half-inhibitory concentration (IC50) on HIV-1 Protease is 0.389 nM. For `CC(C)(C)NC(=O)[C@@H]1C[C@@H]2SCC[C@@H]2CN1C[C@@H](O)[C@H](CSc1ccccc1)NC(=O)C[C@@H]1CCS(=O)(=O)C1` [Example 12, N-t-Butyl-octahydro-5[2R-hydroxy-3R-N(1',1'-dioxo-tetrahydrothiophen-3'R-ylmethylcarbonyl)amino-4-phenylthio-butyl]-(3aR,7aS)-thieno[3,2-c] pyridine-(6S)-carboxamide], in the assay with HIV (setting [3]), the IC90 was 96 nM. Moreover, the “Fluorescence Assay IC50” value on HIV-1 Protease (setting [2]) is 0.44 ng/mL. In the case of `C[C@H]1OCC[C@H]1OC(=O)N[C@@H](CSc1ccccc1)[C@H](O)CN1C[C@H]2CCS[C@H]2C[C@H]1C(=O)NC(C)(C)C` [13B-17 mg sample], in the assay with HIV (setting [1]), the IC90 turned out to be 880 nM. Further, the IC50 at HIV-1 Protease is 2.72 nM. With `C[C@H]1[C@@H](OC(=O)N[C@@H](CSc2ccccc2)[C@H](O)CN2C[C@H]3CCS[C@H]3C[C@H]2C(=O)NC(C)(C)C)CCS1(=O)=O` [31D-Fraction B], the 90% effect concentration (IC90) in the assay with HIV (setting [3]) was found to be 31.4 nM.

Values taken from patent publication US5480887A, “Protease inhibitors” (Eli Lilly and Company, priority 1994, dated 1996).
